“And” between values parts separate entries of the source, which are not always exact repeats. Equal values may be shown once. Inconclusive results and toxic doses are left out. How the source made its calls: active means survival T/C of 150% or more; inactive means T/C below 125% in these data.
Test system: P388 leukemia ip, CD2F1 mice, survival T/C
Assay: NCI In Vivo Anticancer Drug Screen. Data for tumor model P388 Leukemia (intraperitoneal) in CD2F1 (CDF1) mice
Conditions: endpoint: median survival time, higher = longer survival
Summary of the method: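 Mice carrying the transplanted tumor received test compound or vehicle. Survival was recorded in each group, and the value is the treated-group measurement divided by that of the vehicle-treated control group.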

[1] = dose: 50.0 mg/kg/injection, schedule: Q01DX009 (ip), vehicle: Klucel (hydroxypropylcellulose) (HPC)
[2] = dose: 100.0 mg/kg/injection, schedule: Q01DX009 (ip), vehicle: Klucel (hydroxypropylcellulose) (HPC)
[3] = dose: 100.0 mg/kg/injection, schedule: Q04DX003 (ip), vehicle: saline with Tween-80
[4] = dose: 200.0 mg/kg/injection, schedule: Q04DX003 (ip), vehicle: saline with Tween-80
[5] = dose: 200.0 mg/kg/injection, schedule: Q01DX009 (ip), vehicle: Klucel (hydroxypropylcellulose) (HPC)
[6] = dose: 50.0 mg/kg/injection, schedule: Q01DX009 (ip), vehicle: saline with Tween-80
[7] = dose: 100.0 mg/kg/injection, schedule: Q01DX009 (ip), vehicle: saline with Tween-80
[8] = dose: 200.0 mg/kg/injection, schedule: Q01DX009 (ip), vehicle: saline with Tween-80
[9] = dose: 50.0 mg/kg/injection, schedule: Q01DX005 (ip), vehicle: saline
[10] = dose: 100.0 mg/kg/injection, schedule: Q01DX005 (ip), vehicle: saline
[11] = dose: 200.0 mg/kg/injection, schedule: Q01DX005 (ip), vehicle: saline

Measured: T/C

CN1C(c2ccccc2)=NN=C(C(F)(F)F)N1C
inactive: dose: 100.0 mg/kg/injection, schedule: Q01DX001 (ip), vehicle: distilled water + Tween-80 + alcohol 98 % of control | dose: 200.0 mg/kg/injection, schedule: Q01DX001 (ip), vehicle: distilled water + Tween-80 + alcohol 101 % of control | dose: 400.0 mg/kg/injection, schedule: Q01DX001 (ip), vehicle: distilled water + Tween-80 + alcohol 106 % of control

CN(C)CCOc1ccc2c(c1)C1=NN(c3ccccc3)C(=O)CC1CO2 (centres undefined)
inactive: dose: 60.0 mg/kg/injection, schedule: Q01DX005 (ip), vehicle: saline with Tween-80 103 % of control | dose: 120.0 mg/kg/injection, schedule: Q01DX005 (ip), vehicle: saline with Tween-80 99 % of control

C=CCn1c(=O)n(C)c(=O)c2[nH]c(Cl)nc21
inactive: dose: 16.0 mg/kg/injection, schedule: Q01DX009 (ip), vehicle: Klucel (hydroxypropylcellulose) (HPC) 108 % of control | dose: 32.0 mg/kg/injection, schedule: Q01DX009 (ip), vehicle: Klucel (hydroxypropylcellulose) (HPC) 103 % of control | [1] 110 % of control | dose: 64.0 mg/kg/injection, schedule: Q01DX009 (ip), vehicle: Klucel (hydroxypropylcellulose) (HPC) 104 % of control | [2] 112 % of control

COC1/C=C/OC2(C)Oc3c(C)c(O)c4c(O)c(c(C5OCCO5)c(O)c4c3C2=O)NC(=O)/C(C)=C\C=C\C(C)C(O)C(C)C(O)C(C)C(OC(C)=O)C1C (centres undefined)
inactive: dose: 25.0 mg/kg/injection, schedule: Q04DX003 (ip), vehicle: saline with Tween-80 96 % of control | dose: 50.0 mg/kg/injection, schedule: Q04DX003 (ip), vehicle: saline with Tween-80 96 % of control | [3] 96 % of control | [4] 104 % of control

Cc1c(C)c2ccccc2[nH]c1=O
inactive: [1] 101 % of control | [2] 104 % of control | [5] 113 % of control | dose: 400.0 mg/kg/injection, schedule: Q01DX009 (ip), vehicle: Klucel (hydroxypropylcellulose) (HPC) 100 % of control

O=[N+]([O-])c1ccc(N/N=C\c2c(Cl)[nH]c3ccccc23)c([N+](=O)[O-])c1
inactive: [6] 93 % of control | [7] 93 % of control | [8] 87 % of control

C=CC(=C)C1(O)c2ccccc2C(=O)N1C (centres undefined)
inactive: dose: 60.0 mg/kg/injection, schedule: Q01DX005 (ip), vehicle: Klucel (hydroxypropylcellulose) (HPC) 106 % of control | dose: 120.0 mg/kg/injection, schedule: Q01DX005 (ip), vehicle: Klucel (hydroxypropylcellulose) (HPC) 109 % of control

CCOC1(C)OC2OC(COCc3ccccc3)C(OCc3ccccc3)C(OCc3ccccc3)C2O1 (centres undefined)
inactive: dose: 12.5 mg/kg/injection, schedule: Q01DX009 (ip), vehicle: other 99 % of control | dose: 25.0 mg/kg/injection, schedule: Q01DX009 (ip), vehicle: other 100 % of control | dose: 50.0 mg/kg/injection, schedule: Q01DX009 (ip), vehicle: other 100 % of control | dose: 100.0 mg/kg/injection, schedule: Q01DX009 (ip), vehicle: other 89 % of control | dose: 200.0 mg/kg/injection, schedule: Q01DX009 (ip), vehicle: other 98 % of control

O=c1[nH]c2ccccc2nc1CBr
inactive: dose: 1.56 mg/kg/injection, schedule: Q01DX009 (ip), vehicle: saline with Tween-80 109 % of control | dose: 3.13 mg/kg/injection, schedule: Q01DX009 (ip), vehicle: saline with Tween-80 109 % of control | dose: 6.25 mg/kg/injection, schedule: Q01DX009 (ip), vehicle: saline with Tween-80 113 % of control | dose: 8.33 mg/kg/injection, schedule: Q01DX009 (ip), vehicle: saline with Tween-80 118 % of control | dose: 12.5 mg/kg/injection, schedule: Q01DX009 (ip), vehicle: saline with Tween-80 113 % of control and 122 % of control | dose: 18.7 mg/kg/injection, schedule: Q01DX009 (ip), vehicle: saline with Tween-80 118 % of control

COc1ccc2c(c1)[C@@]13CCCCC1[C@@H](C2)N(CC1CC1)CC3 (some centres undefined)
inactive: dose: 100.0 mg/kg/injection, schedule: Q01DX001 (ip), vehicle: Klucel (hydroxypropylcellulose) (HPC) 100 % of control | dose: 200.0 mg/kg/injection, schedule: Q01DX001 (ip), vehicle: Klucel (hydroxypropylcellulose) (HPC) 100 % of control

CSCc1cccc(Cl)c1N
inactive: dose: 25.0 mg/kg/injection, schedule: Q01DX009 (ip), vehicle: saline with Tween-80 102 % of control | [6] 106 % of control | [7] 106 % of control

O=S(=O)(O)CC(O)CNC(CO)(CO)CO (centres undefined)
inactive: dose: 60.0 mg/kg/injection, schedule: Q01DX005 (ip), vehicle: saline 104 % of control | dose: 120.0 mg/kg/injection, schedule: Q01DX005 (ip), vehicle: saline 98 % of control | dose: 240.0 mg/kg/injection, schedule: Q01DX005 (ip), vehicle: saline 104 % of control

CCC#CC(=O)OC
inactive: [6] 94 % of control | [7] 103 % of control | [8] 114 % of control

OC(CC1(O)C(F)(F)C(F)(F)C1(F)F)c1ccccc1 (centres undefined)
inactive: [3] 100 % of control | [4] 90 % of control

O=C1NC(=O)C2(N1)C(=O)c1cccc3cccc2c13 (centres undefined)
inactive: dose: 50.0 mg/kg/injection, schedule: Q01DX009 (ip), vehicle: distilled water + alcohol 100 % of control | dose: 100.0 mg/kg/injection, schedule: Q01DX009 (ip), vehicle: distilled water + alcohol 102 % of control | dose: 200.0 mg/kg/injection, schedule: Q01DX009 (ip), vehicle: distilled water + alcohol 95 % of control

CC(NC(=O)CN(C)C(=O)OCc1ccccc1)C(=O)O (centres undefined)
inactive: [9] 102 % of control | [10] 96 % of control | [11] 100 % of control

C=C1C[C@@H](C2OC3OC(C)(C)OC3C2OCc2ccccc2)OC1=O (some centres undefined)
inactive: dose: 50.0 mg/kg/injection, schedule: Q01DX005 (ip), vehicle: saline with Tween-80 116 % of control | dose: 100.0 mg/kg/injection, schedule: Q01DX005 (ip), vehicle: saline with Tween-80 124 % of control

CC(C)N(CCO)CCO
inactive: [9] 104 % of control | [10] 98 % of control | [11] 100 % of control

CCCOC1C=C(C)C(=O)O1 (centres undefined)
inactive: dose: 40.5 mg/kg/injection, schedule: Q01DX005 (ip), vehicle: saline with Tween-80 103 % of control | dose: 81.0 mg/kg/injection, schedule: Q01DX005 (ip), vehicle: saline with Tween-80 104 % of control | dose: 162.0 mg/kg/injection, schedule: Q01DX005 (ip), vehicle: saline with Tween-80 112 % of control

C(=N/c1ccccn1)/c1ccc2c(c1)OCO2
inactive: [1] 100 % of control | [2] 105 % of control | [5] 101 % of control

COc1cc(-c2nnc(SCCN(C)C)o2)cc(OC)c1OC
inactive: dose: 50.0 mg/kg/injection, schedule: Q04DX002 (ip), vehicle: water 100 % of control | dose: 100.0 mg/kg/injection, schedule: Q04DX002 (ip), vehicle: water 101 % of control | dose: 200.0 mg/kg/injection, schedule: Q04DX002 (ip), vehicle: water 100 % of control

CN1C(c2ccncc2)=NCC12CCCCC2
inactive: dose: 6.25 mg/kg/injection, schedule: Q01DX005 (ip), vehicle: saline 97 % of control | dose: 12.5 mg/kg/injection, schedule: Q01DX005 (ip), vehicle: saline 100 % of control | dose: 12.5 mg/kg/injection, schedule: Q04DX002 (ip), vehicle: saline 106 % of control | dose: 25.0 mg/kg/injection, schedule: Q01DX005 (ip), vehicle: saline 95 % of control | dose: 25.0 mg/kg/injection, schedule: Q04DX002 (ip), vehicle: saline 106 % of control

NC(=S)NNC(=O)c1ccc([N+](=O)[O-])cc1
inactive: dose: 25.0 mg/kg/injection, schedule: Q01DX009 (ip), vehicle: Klucel (hydroxypropylcellulose) (HPC) 100 % of control | [1] 105 % of control | [2] 99 % of control | [5] 96 % of control

CN1CNC(=S)NC1
inactive: dose: 50.0 mg/kg/injection, schedule: Q01DX009 (ip), vehicle: saline 105 % of control | dose: 100.0 mg/kg/injection, schedule: Q01DX009 (ip), vehicle: saline 102 % of control | dose: 200.0 mg/kg/injection, schedule: Q01DX009 (ip), vehicle: saline 101 % of control

C=C(C)C12CC(C)C34OC(CCCCCCCCC)(OC1C3C1OC1(CO)C(O)C1(O)C(=O)C(C)=CC14)O2 (centres undefined)
inactive: dose: 3.0 micrograms/kg/injection, schedule: Q01DX009 (ip), vehicle: saline + alcohol 107 % of control | dose: 5.0 micrograms/kg/injection, schedule: Q01DX009 (ip), vehicle: saline + alcohol 109 % of control | dose: 10.0 micrograms/kg/injection, schedule: Q01DX009 (ip), vehicle: saline + alcohol 105 % of control | dose: 20.0 micrograms/kg/injection, schedule: Q01DX009 (ip), vehicle: saline + alcohol 109 % of control | dose: 40.0 micrograms/kg/injection, schedule: Q01DX009 (ip), vehicle: saline + alcohol 116 % of control

Source: PubChem BioAssay AID330 (DTP/NCI, 2004)
